Measurements from ChEMBL document CHEMBL1135590, “Design of substrate-based inhibitors of human beta-secretase” (J Med Chem, 2002).
Starred links: 1 amine or outer side, 2 acyl side, 3 side chain; linkers in the order of their positions; H or OH if unused. Non-standard residues stand in square brackets, D forms with d. Residues, ends and D or L forms follow the SMILES beside them. ξ: configuration not given here. LeuΨ(ξCHOHCH2)Val = CC(C)C[C@H](N[*:1])C(O)C[C@H](C(=O)[*:2])C(C)C; X2 = CC(=O)O[C@@H](CC(=O)[*:2])[C@H](CC(C)C)N[*:1]; Sta(3ξ) = CC(C)C[C@H](N[*:1])C(O)CC(=O)[*:2]; X3 = CC(C)C[C@H](N[*:1])[C@H](O)CC(=O)[*:2]; X4 = O=C(CC(O)[C@H](Cc1ccccc1)N[*:1])[*:2]; X5 = O=C(CC(O)[C@H](CC1CCCCC1)N[*:1])[*:2]; Sta = CC(C)C[C@H](N)[C@@H](O)CC(=O)O; X1 = CC(C)CC(N[*:1])C(O)CC(=O)[*:2]; Tle = CC(C)(C)[C@H](N)C(=O)O

Biological target: Beta-secretase 1 (Homo sapiens, UniProt P56817)
Sequence (P56817 whole entry): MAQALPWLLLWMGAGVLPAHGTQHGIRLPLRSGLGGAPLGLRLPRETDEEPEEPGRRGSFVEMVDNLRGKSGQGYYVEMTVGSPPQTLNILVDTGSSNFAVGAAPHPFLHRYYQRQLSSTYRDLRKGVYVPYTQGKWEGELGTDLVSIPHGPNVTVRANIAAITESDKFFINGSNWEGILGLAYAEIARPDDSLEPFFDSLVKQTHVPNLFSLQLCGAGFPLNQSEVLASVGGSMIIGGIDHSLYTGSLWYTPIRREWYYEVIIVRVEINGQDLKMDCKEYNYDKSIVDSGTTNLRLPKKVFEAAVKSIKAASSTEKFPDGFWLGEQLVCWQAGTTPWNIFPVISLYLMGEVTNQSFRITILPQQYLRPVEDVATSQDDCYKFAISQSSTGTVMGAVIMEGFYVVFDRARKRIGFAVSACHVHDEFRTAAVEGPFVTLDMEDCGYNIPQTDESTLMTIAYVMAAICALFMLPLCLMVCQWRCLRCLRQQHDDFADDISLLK
Experiment: Inhibition of human brain beta-secretase, using MBPC125Swe (maltose-binding-protein C-125 Swedish) assay
Assay type: biochemical

Molecule	IC50 [µM]
H-TNIKTEEISEVNHDAEFR-OH	> 200
CC(C)C[C@H](NC(=O)[C@H](CC(N)=O)NC(=O)[C@@H](N)C(C)C)C(O)CC(=O)N[C@H](C(=O)N[C@@H](C)C(=O)N[C@@H](CCC(=O)O)C(=O)N[C@@H](Cc1ccccc1)C(=O)O)C(C)C (some centres not stated) (H-VN[Sta(3ξ)]VAEF-OH)	9
CSCC[C@H](NC(=O)[C@@H](NC(C)=O)C(C)C)C(=O)NC(CC(C)C)C(O)CC(=O)N[C@H](C(=O)N[C@@H](C)C(=O)N[C@@H](CCC(=O)O)C(=O)O)C(C)C (some centres not stated) (Ac-VM[X1]VAE-OH)	1
CSCC[C@H](NC(=O)[C@@H](NC(C)=O)C(C)C)C(=O)N[C@@H](CC(C)C)C(O)CC(=O)N[C@H](C(=O)N[C@@H](C)C(=O)N[C@@H](CCC(=O)O)C(=O)N[C@@H](C)C(=O)O)C(C)C (some centres not stated) (Ac-VM[Sta(3ξ)]VAEA-OH)	1.2
CC[C@H](C)[C@H](NC(=O)[C@H](CCC(=O)O)NC(=O)[C@H](CCC(=O)O)NC(=O)[C@@H](NC(=O)[C@@H](N)CCCCN)[C@@H](C)O)C(=O)N[C@@H](CO)C(=O)N[C@@H](CCC(=O)O)C(=O)N[C@H](C(=O)N[C@@H](CC(N)=O)C(=O)N[C@@H](CC(C)C)[C@@H](O)CC(=O)N[C@@H](CC(=O)O)C(=O)N[C@@H](C)C(=O)N[C@@H](CCC(=O)O)C(=O)N[C@@H](Cc1ccccc1)C(=O)N[C@@H](CCCN=C(N)N)C(=O)O)C(C)C (H-KTEEISEVN[Sta]DAEFR-OH)	60
H-TNIKTEEISEVNLLAEFR-OH	45
CC[C@H](C)[C@H](NC(=O)[C@H](CCC(=O)O)NC(=O)[C@H](CCC(=O)O)NC(=O)[C@@H](NC(=O)[C@@H](N)CCCCN)[C@@H](C)O)C(=O)N[C@@H](CO)C(=O)N[C@@H](CCC(=O)O)C(=O)N[C@H](C(=O)N[C@@H](CC(N)=O)C(=O)N[C@@H](CC(C)C)[C@H](O)CC(=O)N[C@@H](CC(=O)O)C(=O)N[C@@H](C)C(=O)N[C@@H](CCC(=O)O)C(=O)N[C@@H](Cc1ccccc1)C(=O)O)C(C)C (H-KTEEISEVN[X3]DAEF-OH)	> 200
CSCC[C@H](NC(=O)[C@@H](NC(C)=O)C(C)C)C(=O)NC(CC(C)C)C(O)CC(=O)N[C@H](C(=O)N[C@@H](C)C(=O)O)C(C)C (some centres not stated) (Ac-VM[X1]VA-OH)	> 100
CC(C)C[C@H](NC(=O)[C@H](CC(N)=O)NC(=O)[C@@H](NC(=O)[C@@H](N)CCC(=O)O)C(C)C)C(O)CC(=O)N[C@H](C(=O)N[C@@H](C)C(=O)N[C@@H](CCC(=O)O)C(=O)N[C@@H](Cc1ccccc1)C(=O)O)C(C)C (some centres not stated) (H-EVN[Sta(3ξ)]VAEF-OH)	0.04
CC[C@H](C)[C@H](NC(=O)[C@H](CCC(=O)O)NC(=O)[C@H](CCC(=O)O)NC(=O)[C@@H](NC(=O)[C@@H](N)CCCCN)[C@@H](C)O)C(=O)N[C@@H](CO)C(=O)N[C@@H](CCC(=O)O)C(=O)N[C@H](C(=O)N[C@@H](CC(N)=O)C(=O)N[C@@H](CC(C)C)[C@@H](O)CC(=O)N[C@H](C(=O)N[C@@H](C)C(=O)N[C@@H](CCC(=O)O)C(=O)N[C@@H](Cc1ccccc1)C(=O)O)C(C)C)C(C)C (H-KTEEISEVN[Sta]VAEF-OH)	0.03
CSCC[C@H](NC(=O)[C@@H](NC(C)=O)C(C)C)C(=O)NC(CC(C)C)C(O)CC(=O)N1CCC[C@@H]1C(=O)N[C@@H](C)C(=O)N[C@@H](CCC(=O)O)C(=O)N[C@@H](Cc1ccccc1)C(=O)O (some centres not stated)	> 200
CC[C@H](C)[C@H](NC(=O)[C@H](CCC(=O)O)NC(=O)[C@H](CCC(=O)O)NC(=O)[C@@H](NC(=O)[C@@H](N)CCCCN)[C@@H](C)O)C(=O)N[C@@H](CO)C(=O)N[C@@H](CCC(=O)O)C(=O)N[C@H](C(=O)N[C@@H](CC(N)=O)C(=O)N[C@@H](CC(C)C)[C@@H](O)CC(=O)N[C@@H](C)C(=O)N[C@@H](C)C(=O)N[C@@H](CCC(=O)O)C(=O)N[C@@H](Cc1ccccc1)C(=O)O)C(C)C (H-KTEEISEVN[Sta]AAEF-OH)	0.5
H-TNIKTEEISEVNTDAEFR-OH	> 200
CSCC[C@H](NC(=O)[C@@H](NC(C)=O)C(C)C)C(=O)NC(CC(C)C)C(O)CC(=O)N[C@H](C(=O)N[C@@H](C)C(=O)N[C@@H](CCC(=O)O)C(=O)N[C@@H](Cc1ccccc1)C(=O)O)[C@H](C)O (some centres not stated)	100
CC(C)CC(NC(=O)[C@@H](N)CC(N)=O)C(O)CC(=O)N[C@H](C(=O)N[C@@H](C)C(=O)N[C@@H](CCC(=O)O)C(=O)N[C@@H](Cc1ccccc1)C(=O)O)C(C)C (some centres not stated) (H-N[X1]VAEF-OH)	> 150
H-TNIKTEEISEVNLDAEFR-OH	> 200
H-TNIKTEEISEVNRDAEFR-OH	> 200
H-TNIKTEEISEVNEDAEFR-OH	> 200
CSCC[C@H](NC(=O)[C@@H](NC(C)=O)C(C)C)C(=O)NC(CC(C)C)C(O)CC(=O)N[C@H](C(=O)N[C@@H](C)C(=O)N[C@@H](CCC(=O)O)C(=O)N[C@@H](Cc1ccccc1)C(=O)O)C(C)C (some centres not stated) (Ac-VM[X1]VAEF-OH)	0.3
H-TNIKTEEISEVNADAEFR-OH	> 200
H-TNIKTEEISEVNMDAEFR-OH	> 200

Molecule	IC50 [µM]
H-TNIKTEEISEVNLVAEFR-OH	3
H-TNIKTEEISEVNLKAEFR-OH	40
CSCC[C@H](NC(=O)[C@@H](NC(C)=O)C(C)C)C(=O)NC(CC(C)C)C(O)CC(=O)N[C@@H](Cc1ccccc1)C(=O)N[C@@H](C)C(=O)N[C@@H](CCC(=O)O)C(=O)N[C@@H](Cc1ccccc1)C(=O)O (some centres not stated) (Ac-VM[X1]FAEF-OH)	15
H-TNIKTEEISEVNVDAEFR-OH	> 200
CSCC[C@H](NC(=O)[C@@H](NC(C)=O)C(C)C)C(=O)NC(CC(C)C)C(O)CC(=O)N[C@@H](C)C(=O)N[C@@H](C)C(=O)N[C@@H](CCC(=O)O)C(=O)N[C@@H](Cc1ccccc1)C(=O)O (some centres not stated) (Ac-VM[X1]AAEF-OH)	5
CC[C@H](C)[C@H](NC(=O)[C@H](CCC(=O)O)NC(=O)[C@H](CCC(=O)O)NC(=O)[C@@H](NC(=O)[C@@H](N)CCCCN)[C@@H](C)O)C(=O)N[C@@H](CO)C(=O)N[C@@H](CCC(=O)O)C(=O)N[C@H](C(=O)N[C@@H](CC(N)=O)C(=O)N[C@@H](CC(C)C)[C@@H](O)CC(=O)N[C@@H](CC(=O)O)C(=O)N[C@@H](C)C(=O)N[C@@H](CCC(=O)O)C(=O)N[C@@H](Cc1ccccc1)C(=O)O)C(C)C (H-KTEEISEVN[Sta]DAEF-OH)	40
H-TNIKTEEISEVNLGAEFR-OH	119
CC(C)C[C@H](NC(=O)[C@H](CC(N)=O)NC(=O)[C@H](C)NC(=O)[C@@H](N)CCC(=O)O)C(O)CC(=O)N[C@H](C(=O)N[C@@H](C)C(=O)N[C@@H](CCC(=O)O)C(=O)N[C@@H](Cc1ccccc1)C(=O)O)C(C)C (some centres not stated) (H-EAN[Sta(3ξ)]VAEF-OH)	2.5
CSCC[C@H](NC(=O)[C@@H](NC(C)=O)C(C)C)C(=O)N[C@@H](CC(C)C)C(O)C[C@H](C(=O)N[C@@H](C)C(=O)N[C@@H](CCC(=O)O)C(=O)N[C@@H](Cc1ccccc1)C(=O)O)C(C)C (some centres not stated) (Ac-VM[LeuΨ(ξCHOHCH2)Val]AEF-OH)	0.02
H-TNIKTEEISEVNLAAEFR-OH	> 200
H-TNIKTEEISEVNLFAEFR-OH	40
CSCC[C@H](NC(=O)[C@@H](NC(C)=O)C(C)C)C(=O)N[C@@H](CC(C)C)C(O)CC(=O)N[C@@H](CC(=O)O)C(=O)N[C@@H](C)C(=O)N[C@@H](CCC(=O)O)C(=O)N[C@@H](C)C(=O)O (some centres not stated) (Ac-VM[Sta(3ξ)]DAEA-OH)	> 100
CSCC[C@H](NC(=O)[C@@H](NC(C)=O)C(C)C)C(=O)N[C@@H](CC1CCCCC1)C(O)CC(=O)N[C@H](C(=O)N[C@@H](C)C(=O)N[C@@H](CCC(=O)O)C(=O)N[C@@H](Cc1ccccc1)C(=O)O)C(C)C (some centres not stated) (Ac-VM[X5]VAEF-OH)	5
CC(=O)N[C@H](C(=O)N[C@@H](CC(N)=O)C(=O)NC(CC(C)C)C(O)CC(=O)N[C@H](C(=O)N[C@@H](C)C(=O)N[C@@H](CCC(=O)O)C(=O)N[C@@H](Cc1ccccc1)C(=O)O)C(C)C)C(C)C (some centres not stated) (Ac-VN[X1]VAEF-OH)	0.5
CSCC[C@H](NC(=O)[C@@H](NC(C)=O)C(C)C)C(=O)NC(CC(C)C)C(O)CC(=O)N[C@H](C(=O)O)C(C)C (some centres not stated)	> 100
H-TNIKTEEISEVNGDAEFR-OH	> 200
CSCC[C@H](NC(=O)[C@@H](NC(C)=O)C(C)C)C(=O)N[C@@H](CC(C)C)C(O)CC(=O)N[C@H](C(=O)N[C@@H](C)C(=O)N[C@@H](C)C(=O)N[C@@H](Cc1ccccc1)C(=O)O)C(C)C (some centres not stated) (Ac-VM[Sta(3ξ)]VAAF-OH)	2
CC[C@H](C)[C@H](NC(=O)[C@H](CCC(=O)O)NC(=O)[C@H](CCC(=O)O)NC(=O)[C@@H](NC(=O)[C@@H](N)CCCCN)[C@@H](C)O)C(=O)N[C@@H](CO)C(=O)N[C@@H](CCC(=O)O)C(=O)N[C@H](C(=O)N[C@@H](CC(N)=O)C(=O)N[C@@H](CC(C)C)[C@H](CC(=O)N[C@@H](CC(=O)O)C(=O)N[C@@H](C)C(=O)N[C@@H](CCC(=O)O)C(=O)N[C@@H](Cc1ccccc1)C(=O)O)OC(C)=O)C(C)C (H-KTEEISEVN[X2]DAEF-OH)	> 200
CSCC[C@H](NC(=O)[C@@H](NC(C)=O)C(C)C)C(=O)N[C@@H](CC(C)C)C(O)CC(=O)N[C@H](C(=O)N[C@@H](C)C(=O)N[C@@H](CCC(=O)O)C(=O)N[C@@H](C)C(=O)O)C(C)(C)C (some centres not stated) (Ac-VM[Sta(3ξ)][Tle]AEA-OH)	20
H-TNIKTEEISEVNFDAEFR-OH	> 200
CSCC[C@H](NC(=O)[C@@H](NC(C)=O)C(C)C)C(=O)N[C@@H](Cc1ccccc1)C(O)CC(=O)N[C@H](C(=O)N[C@@H](C)C(=O)N[C@@H](CCC(=O)O)C(=O)N[C@@H](Cc1ccccc1)C(=O)O)C(C)C (some centres not stated) (Ac-VM[X4]VAEF-OH)	0.5
